Measured values published in US20250214991A1 (Oncopia Therapeutics, Inc. d/b/a/ SK Life Science Labs, priority 2022, published 2025).
pIC50: −log10 of the molar value.

Experiments:
IKZF1 = IKZF1 (Homo sapiens (Human), UniProt Q13422+Q96SW2); assay: In vitro IKZF1 HiBit Assay (HEK293T Flp-in-HiBiT-IKZF1 stable cell line); assay type: cell-based; conditions: HEK293T Flp-in-HiBiT-IKZF1 stable cell line, 6 hrs incubation; for DC50: read-out: IKZF1 HiBit DC50; for Dmax: HEK-293T, read-out: IKZF1 HiBit Dmax (%)
In short: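 Degradation was measured as loss of luminescence from the HiBiT-IKZF1 tag after 6 h compound treatment, with 0.1% final DMSO, in stable HEK293T Flp-in cells. Values were normalized to DMSO, giving the 50% degradation concentration and the maximal degradation range.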

CRBN/DDB1 = CRBN/DDB1 (Homo sapiens (Human), UniProt Q96SW2); assay: IC50 measurements for binding to CRBN/DDB1 (HTRF); conditions: His tagged CRBN+DDB, Cy5-labeled Thalidomide probe, one hour
In short: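 Serially diluted compounds compete with a Cy5-labeled thalidomide tracer (60 nM) for His-tagged CRBN-DDB1 (2 nM), detected via anti-6His Tb cryptate (0.4 nM); buffer HEPES pH 7.5 with TCEP, Brij-35, NaCl, BSA. One-hour room-temperature incubation, HTRF signal read, IC50 by four-parameter curve.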

IKZF2 = IKZF2 (Homo sapiens (Human), UniProt Q96SW2+Q9UKS7); assay: In vitro IKZF2 HiBit Assay (HEK293T Flp-in-HiBiT cells); assay type: cell-based; conditions: HEK293T Flp-in-HiBiT cells, 6 hrs incubation; for DC50: read-out: IKZF2 HiBit DC50; for Dmax: HEK-293T, read-out: IKZF2 HiBit Dmax (%)
In short: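 Remaining tagged Helios was read as lytic HiBiT/LgBiT luminescence normalized to DMSO, yielding binned DC50 and Dmax values. Treatment ran 6 h, with compounds at 11 three-fold doses diluted from 1 mM and 0.1% final DMSO. The cells were HEK293T Flp-in with CRISPR knock-in of HiBiT at the IKZF2 N-terminus.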

Sequence of CRBN/DDB1 (Q96SW2 whole entry, species assumed): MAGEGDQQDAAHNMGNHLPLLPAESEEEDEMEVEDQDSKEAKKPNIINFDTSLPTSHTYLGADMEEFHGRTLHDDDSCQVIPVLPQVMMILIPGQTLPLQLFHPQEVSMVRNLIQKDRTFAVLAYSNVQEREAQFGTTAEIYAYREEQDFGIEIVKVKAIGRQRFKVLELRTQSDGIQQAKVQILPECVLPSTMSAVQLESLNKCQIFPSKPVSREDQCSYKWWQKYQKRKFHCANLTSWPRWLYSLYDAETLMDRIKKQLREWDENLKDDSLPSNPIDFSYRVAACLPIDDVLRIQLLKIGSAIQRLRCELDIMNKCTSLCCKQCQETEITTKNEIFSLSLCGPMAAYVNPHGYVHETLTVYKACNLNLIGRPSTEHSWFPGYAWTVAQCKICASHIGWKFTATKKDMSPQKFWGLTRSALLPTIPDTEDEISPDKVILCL
Sequence of CRBN/DDB1 (Q16531 whole entry partner, species assumed): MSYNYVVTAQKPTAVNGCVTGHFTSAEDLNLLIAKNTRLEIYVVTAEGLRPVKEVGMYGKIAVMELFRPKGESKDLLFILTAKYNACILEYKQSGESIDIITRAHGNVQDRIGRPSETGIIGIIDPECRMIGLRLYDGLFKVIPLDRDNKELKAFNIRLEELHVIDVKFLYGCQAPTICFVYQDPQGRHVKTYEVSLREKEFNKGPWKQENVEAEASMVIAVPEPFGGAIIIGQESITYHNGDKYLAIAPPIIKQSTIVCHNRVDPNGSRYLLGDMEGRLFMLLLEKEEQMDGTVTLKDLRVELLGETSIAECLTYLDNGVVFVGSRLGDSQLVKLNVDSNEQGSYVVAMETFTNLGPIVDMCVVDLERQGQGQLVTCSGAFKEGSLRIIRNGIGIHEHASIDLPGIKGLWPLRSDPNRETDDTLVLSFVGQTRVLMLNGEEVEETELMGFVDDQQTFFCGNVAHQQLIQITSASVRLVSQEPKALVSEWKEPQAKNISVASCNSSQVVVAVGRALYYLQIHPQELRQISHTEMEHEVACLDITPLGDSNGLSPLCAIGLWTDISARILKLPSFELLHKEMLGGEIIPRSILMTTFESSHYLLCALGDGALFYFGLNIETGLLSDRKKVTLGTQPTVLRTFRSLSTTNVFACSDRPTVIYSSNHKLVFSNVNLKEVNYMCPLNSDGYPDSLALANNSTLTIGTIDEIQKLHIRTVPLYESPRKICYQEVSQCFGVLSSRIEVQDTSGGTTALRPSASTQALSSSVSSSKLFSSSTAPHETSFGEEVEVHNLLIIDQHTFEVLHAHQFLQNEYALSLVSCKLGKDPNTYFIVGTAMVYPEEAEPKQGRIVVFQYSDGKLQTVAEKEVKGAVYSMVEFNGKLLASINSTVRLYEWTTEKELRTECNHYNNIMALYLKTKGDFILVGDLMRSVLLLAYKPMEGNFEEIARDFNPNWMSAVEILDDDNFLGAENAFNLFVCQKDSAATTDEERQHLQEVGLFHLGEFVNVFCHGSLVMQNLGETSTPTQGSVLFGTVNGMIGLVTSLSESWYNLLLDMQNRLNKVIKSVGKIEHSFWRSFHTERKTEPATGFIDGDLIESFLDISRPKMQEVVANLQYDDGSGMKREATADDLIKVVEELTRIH
Sequence of IKZF2 (Q9UKS7 whole entry): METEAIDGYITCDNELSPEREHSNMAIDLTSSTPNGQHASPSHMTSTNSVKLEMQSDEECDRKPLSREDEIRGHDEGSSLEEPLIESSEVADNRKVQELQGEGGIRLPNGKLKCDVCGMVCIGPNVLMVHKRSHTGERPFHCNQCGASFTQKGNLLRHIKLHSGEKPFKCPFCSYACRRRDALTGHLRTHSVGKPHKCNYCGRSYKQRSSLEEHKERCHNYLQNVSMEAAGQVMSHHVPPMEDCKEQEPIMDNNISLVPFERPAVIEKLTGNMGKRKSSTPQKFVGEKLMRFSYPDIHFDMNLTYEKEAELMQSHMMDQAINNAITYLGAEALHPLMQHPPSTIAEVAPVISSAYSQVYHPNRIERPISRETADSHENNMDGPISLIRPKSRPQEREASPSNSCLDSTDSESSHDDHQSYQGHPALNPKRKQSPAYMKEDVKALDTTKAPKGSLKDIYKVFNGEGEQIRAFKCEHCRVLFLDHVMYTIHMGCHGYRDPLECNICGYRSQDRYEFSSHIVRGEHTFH
Sequence of IKZF2 (Q96SW2 whole entry): as the sequence (Q96SW2 whole entry, species assumed) above
Sequence of IKZF2 (Q16531 2-1140 partner): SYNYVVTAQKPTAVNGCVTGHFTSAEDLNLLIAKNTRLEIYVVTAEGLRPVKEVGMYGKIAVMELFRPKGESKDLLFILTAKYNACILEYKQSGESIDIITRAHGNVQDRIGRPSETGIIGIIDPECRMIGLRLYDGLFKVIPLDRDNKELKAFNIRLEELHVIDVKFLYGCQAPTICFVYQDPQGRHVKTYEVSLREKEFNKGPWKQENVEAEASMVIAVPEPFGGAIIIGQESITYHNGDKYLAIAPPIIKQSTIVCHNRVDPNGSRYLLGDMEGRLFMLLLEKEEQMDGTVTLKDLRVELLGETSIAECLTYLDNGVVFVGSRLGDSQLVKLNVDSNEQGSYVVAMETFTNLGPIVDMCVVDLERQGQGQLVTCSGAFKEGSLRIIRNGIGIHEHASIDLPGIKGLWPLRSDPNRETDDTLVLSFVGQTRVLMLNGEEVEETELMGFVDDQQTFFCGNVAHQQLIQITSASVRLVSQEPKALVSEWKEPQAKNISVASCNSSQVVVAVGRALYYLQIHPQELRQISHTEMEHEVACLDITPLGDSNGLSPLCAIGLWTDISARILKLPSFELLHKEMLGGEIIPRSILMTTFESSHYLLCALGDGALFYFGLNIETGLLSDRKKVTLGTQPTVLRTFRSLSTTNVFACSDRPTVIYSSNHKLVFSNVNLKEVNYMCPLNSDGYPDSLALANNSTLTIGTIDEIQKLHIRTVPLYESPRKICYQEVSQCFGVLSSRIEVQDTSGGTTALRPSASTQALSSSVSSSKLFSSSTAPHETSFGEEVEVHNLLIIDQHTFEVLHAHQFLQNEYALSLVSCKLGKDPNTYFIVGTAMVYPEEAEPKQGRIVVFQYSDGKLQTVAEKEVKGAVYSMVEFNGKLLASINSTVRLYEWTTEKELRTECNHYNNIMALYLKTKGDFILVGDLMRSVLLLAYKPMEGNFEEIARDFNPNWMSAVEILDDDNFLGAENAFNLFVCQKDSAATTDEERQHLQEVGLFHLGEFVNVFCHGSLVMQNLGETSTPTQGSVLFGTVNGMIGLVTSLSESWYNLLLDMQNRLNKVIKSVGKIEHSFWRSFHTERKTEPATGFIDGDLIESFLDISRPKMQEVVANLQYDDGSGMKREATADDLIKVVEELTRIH
Sequence of IKZF1 (Q13422 whole entry): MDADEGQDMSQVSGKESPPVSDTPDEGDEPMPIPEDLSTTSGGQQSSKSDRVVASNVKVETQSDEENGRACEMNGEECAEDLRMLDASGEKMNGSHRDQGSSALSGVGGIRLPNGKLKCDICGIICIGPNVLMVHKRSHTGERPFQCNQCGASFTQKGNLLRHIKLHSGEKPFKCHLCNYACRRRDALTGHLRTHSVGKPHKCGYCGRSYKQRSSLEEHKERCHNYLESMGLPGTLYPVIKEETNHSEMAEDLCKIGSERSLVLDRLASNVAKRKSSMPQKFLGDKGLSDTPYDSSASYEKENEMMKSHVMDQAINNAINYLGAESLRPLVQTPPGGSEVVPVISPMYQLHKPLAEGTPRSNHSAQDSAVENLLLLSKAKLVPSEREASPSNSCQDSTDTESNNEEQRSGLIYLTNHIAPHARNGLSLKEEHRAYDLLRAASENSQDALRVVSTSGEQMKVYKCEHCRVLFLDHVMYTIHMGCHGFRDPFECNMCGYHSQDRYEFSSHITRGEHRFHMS
Sequence of IKZF1 (Q96SW2 whole entry): as the sequence (Q96SW2 whole entry, species assumed) above
Sequence of IKZF1 (Q16531 2-1140 partner): as the sequence (Q16531 2-1140 partner) above

| SMILES | DC50 (IKZF1) [nM] | Dmax (IKZF1) [%] | pIC50 (CRBN/DDB1) | DC50 (IKZF2) [nM] | Dmax (IKZF2) [%] |
| --- | --- | --- | --- | --- | --- |
| Nc1n[nH]c2c(CN3CC4COCC4C3)cc(-c3ccc4c(c3)CN(C3CCC(=O)NC3=O)C4=O)nc12 (stereo not drawn) [Example 214, 3-(5-(3-amino-7-((tetrahydro-1H-furo[3,4-c]pyrrol-5 (3H)-yl)methyl)-1H-pyrazolo[4,3-b]pyridin-5-yl)-1-oxoisoindolin-2-yl) piperidine-2,6-dione] | > 10000 | < 20 | 6.30 to 7.00 | 100 to 1000 | 60 to 80 |
| Cn1ccc2c(CN3CCSCC3)cc(-c3ccc4c(c3)CN(C3CCC(=O)NC3=O)C4=O)nc21 (stereo not drawn) [Example 62, 3-(5-(1-methyl-4-(thiomorpholinomethyl)-1H-pyrrolo[2,3-b]pyridin-6-yl)-1-oxoisoindolin-2-yl) piperidine-2,6-dione] | > 10000 | < 20 | 6.30 to 7.00 | 1 to 10 | > 80 |
| O=C1CCC(N2Cc3cc(-c4cc(CN5CCCC5)c5cn(C6COC6)nc5n4)ccc3C2=O)C(=O)N1 (stereo not drawn) [Example 317, 3-(5-(2-(oxetan-3-yl)-4-(pyrrolidin-1-ylmethyl)-2H-pyrazolo[3,4-b]pyridin-6-yl)-1-oxoisoindolin-2-yl) piperidine-2,6-dione] | > 10000 | < 20 | 6.30 to 7.00 | 1 to 10 | 60 to 80 |
| Cn1ccc2c(CN3CC4CCC(C4)C3)cc(-c3ccc4c(c3)CN(C3CCC(=O)NC3=O)C4=O)nc21 (stereo not drawn) [Example 308, 3-(5-(4-((3-azabicyclo[3.2.1]octan-3-yl)methyl)-1-methyl-1H-pyrrolo[2,3-b]pyridin-6-yl)-1-oxoisoindolin-2-yl) piperidine-2,6-dione] | 1 to 10 | 20 to 40 | 6.30 to 7.00 | 1 to 10 | > 80 |
| CN1CC(n2ccc3c(CN4CCCC4)cc(-c4ccc5c(c4)CN(C4CCC(=O)NC4=O)C5=O)nc32)C1 (stereo not drawn) [Example 169, 3-(5-(1-(1-methylazetidin-3-yl)-4-(pyrrolidin-1-ylmethyl)-1H-pyrrolo[2,3-b]pyridin-6-yl)-1-oxoisoindolin-2-yl) piperidine-2,6-dione] | 10 to 100 | 40 to 60 | > 7.00 | 1 to 10 | > 80 |
| COCC1CCCN1Cc1cc(-c2ccc3c(c2)CN(C2CCC(=O)NC2=O)C3=O)nc2c1ccn2C (stereo not drawn) [Example 106, 3-(5-(4-((2-(methoxymethyl)pyrrolidin-1-yl)methyl)-1-methyl-1H-pyrrolo[2,3-b]pyridin-6-yl)-1-oxoisoindolin-2-yl) piperidine-2,6-dione] | > 10000 | < 20 | 6.30 to 7.00 | 1 to 10 | > 80 |
| CN1C2CCC1CN(Cc1cc(-c3ccc4c(c3)CN(C3CCC(=O)NC3=O)C4=O)nc3c1ccn3C)C2 (stereo not drawn) [Example 311, 3-(5-(1-methyl-4-((8-methyl-3,8-diazabicyclo[3.2.1]octan-3-yl)methyl)-1H-pyrrolo[2,3-b]pyridin-6-yl)-1-oxoisoindolin-2-yl) piperidine-2,6-dione] | > 10000 | < 20 | 6.00 to 6.30 | 1 to 10 | 60 to 80 |
| Cn1ccc2c(CN3CCC(F)CC3)cc(-c3ccc4c(c3)CN(C3CCC(=O)NC3=O)C4=O)nc21 (stereo not drawn) [Example 301, 3-(5-(4-((4-fluoropiperidin-1-yl)methyl)-1-methyl-1H-pyrrolo[2,3-b]pyridin-6-yl)-1-oxoisoindolin-2-yl) piperidine-2,6-dione] | 10 to 100 | 20 to 40 | 5.30 to 6.00 | < 1 | > 80 |
| Cn1ccc2nc(-c3ccc4c(c3)CN(C3CCC(=O)NC3=O)C4=O)cc(CN3CCC3)c21 (stereo not drawn) [Example 110, 3-(5-(7-(azetidin-1-ylmethyl)-1-methyl-1H-pyrrolo[3,2-b]pyridin-5-yl)-1-oxoisoindolin-2-yl) piperidine-2,6-dione] | > 10000 | < 20 | 6.00 to 6.30 | 1 to 10 | > 80 |
| Cn1ccc2c(CN3CCC(O)C3)cc(-c3ccc4c(c3)CN(C3CCC(=O)NC3=O)C4=O)nc21 (stereo not drawn) [Example 303, 3-(5-(4-((3-hydroxypyrrolidin-1-yl)methyl)-1-methyl-1H-pyrrolo[2,3-b]pyridin-6-yl)-1-oxoisoindolin-2-yl) piperidine-2,6-dione] | 10 to 100 | 20 to 40 | 5.30 to 6.00 | 1 to 10 | > 80 |
| O=C1CCC(N2Cc3cc(-c4cc(CN5CC(O)C5)c5cc[nH]c5n4)ccc3C2=O)C(=O)N1 (stereo not drawn) [Example 111, 3-(5-(4-((3-hydroxyazetidin-1-yl)methyl)-1H-pyrrolo[2,3-b]pyridin-6-yl)-1-oxoisoindolin-2-yl) piperidine-2,6-dione] | > 10000 | < 20 | 6.30 to 7.00 | 10 to 100 | 60 to 80 |
| Cn1ccc2c(Cn3ccnc3)cc(-c3ccc4c(c3)CN(C3CCC(=O)NC3=O)C4=O)nc21 (stereo not drawn) [Example 88, 3-(5-(4-((1H-imidazol-1-yl)methyl)-1-methyl-1H-pyrrolo[2,3-b]pyridin-6-yl)-1-oxoisoindolin-2-yl) piperidine-2,6-dione] | > 10000 | < 20 | 5.30 to 6.00 | 10 to 100 | > 80 |
| COCCn1ccc2c(CN3CCCC3)cc(-c3ccc4c(c3)CN(C3CCC(=O)NC3=O)C4=O)nc21 (stereo not drawn) [Example 118, 3-(5-(1-(2-methoxyethyl)-4-(pyrrolidin-1-ylmethyl)-1H-pyrrolo[2,3-b]pyridin-6-yl)-1-oxoisoindolin-2-yl) piperidine-2,6-dione] | > 10000 | < 20 | 6.00 to 6.30 | 1 to 10 | 40 to 60 |
| CCn1nc(N)c2nc(-c3ccc4c(c3)CN(C3CCC(=O)NC3=O)C4=O)cc(CN3CCCC3)c21 (stereo not drawn) [Example 178, 3-(5-(3-amino-1-ethyl-7-(pyrrolidin-1-ylmethyl)-1H-pyrazolo[4,3-b]pyridin-5-yl)-1-oxoisoindolin-2-yl) piperidine-2,6-dione] | 100 to 1000 | 20 to 40 | 6.00 to 6.30 | 1 to 10 | 60 to 80 |
| Cn1ccc2c(CN3CC(O)C3)cc(-c3ccc4c(c3)CN(C3CCC(=O)NC3=O)C4=O)nc21 (stereo not drawn) [Example 306, 3-(5-(4-((3-hydroxyazetidin-1-yl)methyl)-1-methyl-1H-pyrrolo[2,3-b]pyridin-6-yl)-1-oxoisoindolin-2-yl) piperidine-2,6-dione] | 100 to 1000 | 20 to 40 | 6.30 to 7.00 | 10 to 100 | > 80 |
| Cn1ccc2c(CN3CCOCC3)cc(-c3ccc4c(c3)CN(C3CCC(=O)NC3=O)C4=O)nc21 (stereo not drawn) [Example 58, 3-(5-(1-methyl-4-(morpholinomethyl)-1H-pyrrolo[2,3-b]pyridin-6-yl)-1-oxoisoindolin-2-yl) piperidine-2,6-dione] | > 10000 | < 20 | 6.00 to 6.30 | 1 to 10 | 60 to 80 |
| Cc1nc2c(CN3CCCC3)cc(-c3ccc4c(c3)CN(C3CCC(=O)NC3=O)C4=O)nc2o1 (stereo not drawn) [Example 197, 3-(5-(2-methyl-7-(pyrrolidin-1-ylmethyl)oxazolo [5,4-b]pyridin-5-yl)-1-oxoisoindolin-2-yl) piperidine-2,6-dione] | > 10000 | < 20 | 6.00 to 6.30 | 1 to 10 | 60 to 80 |
| O=C1CCC(N2Cc3cc(-c4cc(CN5CCCC5)c5cc[nH]c5n4)ccc3C2=O)C(=O)N1 (stereo not drawn) [Example 59, 3-(1-oxo-5-(4-(pyrrolidin-1-ylmethyl)-1H-pyrrolo[2,3-b]pyridin-6-yl)isoindolin-2-yl) piperidine-2,6-dione] | > 10000 | 20 to 40 | 6.30 to 7.00 | 1 to 10 | > 80 |
| O=C1CCC(N2Cc3cc(-c4cc(CN5CCCC5)c5ccn(-c6ccccc6)c5n4)ccc3C2=O)C(=O)N1 (stereo not drawn) [Example 139, 3-(1-oxo-5-(1-phenyl-4-(pyrrolidin-1-ylmethyl)-1H-pyrrolo[2,3-b]pyridin-6-yl)isoindolin-2-yl) piperidine-2,6-dione] | 10 to 100 | 20 to 40 | 6.00 to 6.30 | 1 to 10 | 60 to 80 |
| Cn1ccc2c(CN3CCCCCC3)cc(-c3ccc4c(c3)CN(C3CCC(=O)NC3=O)C4=O)nc21 (stereo not drawn) [Example 302, 3-(5-(4-(azepan-1-ylmethyl)-1-methyl-1H-pyrrolo[2,3-b]pyridin-6-yl)-1-oxoisoindolin-2-yl) piperidine-2,6-dione] | 1 to 10 | 20 to 40 | 5.30 to 6.00 | < 1 | > 80 |
| O=C1CCC(N2Cc3cc(-c4cc(CN5CCCC5)c5c(ccn5C5CC5)n4)ccc3C2=O)C(=O)N1 (stereo not drawn) [Example 174, 3-(5-(1-cyclopropyl-7-(pyrrolidin-1-ylmethyl)-1H-pyrrolo[3,2-b]pyridin-5-yl)-1-oxoisoindolin-2-yl) piperidine-2,6-dione] | 10 to 100 | 20 to 40 | 6.00 to 6.30 | 1 to 10 | 60 to 80 |
